The test system of the assay is ocular hypertension models. In words: Test Example 1: ocular tension in rabbit ocular hypertension models (hypertonic saline) after eye drop solutions. In kind it is in vivo, Domesticated rabbits. As to conditions: rabbits given 100 μl 5 w/v % hypertonic saline, 50 μl eye drop solution, mean ± standard error. Here is the method:
Domesticated rabbits intravenously administered with 100 μl of a 5 w/v % hypertonic saline solution were used as ocular hypertension models. After intravenously administering the hypertonic saline solution, 50 μl of each of the eye drop solutions were administered and the ocular tension was measured 60 and 120 minutes thereafter.

Take `CC(C)OC(=O)CCC/C=C\C[C@@H]1[C@@H](CC[C@@H](O)CCc2ccccc2)[C@H](O)C[C@@H]1O` [Latanoprost, latanoprost]: the “Ocular tension change (mmHg) 60 minutes” value (60 minutes after) amounted to 22.7 ± 1.2 mmHg. Also, the “Ocular tension change (mmHg) 120 minutes” value (120 minutes after) is listed as 9.8 ± 1.9 mmHg.

For the origin of these results see patent US20040171681A1, “Medicines and medicinal kits” (priority 2001, published 2004).
